Results from patent US11945822B2, “Pyrazolo-triazine and/or pyrazolo-pxrimidine derivatives as selective inhibitor of cyclin dependent kinase” (QURIENT CO., LTD., priority 2018, dated 2024).

biological target: T1, CDK7/Cyclin H/MNAT1 (Homo sapiens, UniProt P50613); assay: Enzymatic assay for CDK7 (FRET based LANCE Ultra kinase assay); format: biochemical; details: CDK1/CDK7
T1 construct: purchased Invitrogen PR6749B
Method: (§1) Enzymatic Binding Assay Protocol for CDK1, CDK2, CDK5 and CDK7
Inhibition activity of the respective compound on CDK kinase under Km value of ATP was tested in FRET based The LANCE® Ultra kinase assay (Perkin Elmer), which uses a ULight™-labeled peptide substrate and an appropriate Europium-labeled anti-phospho-antibody. […] After 1 min centrifugation at 1000 rpm, Purified CDKs/Cyclin complex were added following concentrations respectively. […] Data was analyzed using XL Fit software.

T1 sequence (P50613 whole entry): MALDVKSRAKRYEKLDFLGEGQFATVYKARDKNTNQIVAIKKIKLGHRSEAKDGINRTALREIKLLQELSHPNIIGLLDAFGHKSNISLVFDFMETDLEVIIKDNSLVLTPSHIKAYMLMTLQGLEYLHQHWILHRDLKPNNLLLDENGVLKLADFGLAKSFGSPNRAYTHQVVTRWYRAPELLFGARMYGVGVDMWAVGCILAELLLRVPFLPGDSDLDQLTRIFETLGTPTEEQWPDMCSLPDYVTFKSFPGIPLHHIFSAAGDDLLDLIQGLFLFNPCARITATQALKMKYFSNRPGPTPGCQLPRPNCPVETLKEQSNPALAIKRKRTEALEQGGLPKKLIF
T1 sequence (P51946 whole entry partner): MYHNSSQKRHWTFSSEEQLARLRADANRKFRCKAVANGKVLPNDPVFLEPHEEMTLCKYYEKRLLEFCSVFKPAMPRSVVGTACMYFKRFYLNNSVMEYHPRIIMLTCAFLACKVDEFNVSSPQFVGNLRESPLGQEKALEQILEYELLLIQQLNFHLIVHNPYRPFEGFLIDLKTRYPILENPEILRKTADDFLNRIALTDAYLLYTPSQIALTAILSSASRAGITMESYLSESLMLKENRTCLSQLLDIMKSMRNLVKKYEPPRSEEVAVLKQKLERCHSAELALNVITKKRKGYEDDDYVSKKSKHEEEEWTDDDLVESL
T1 sequence (P51948 whole entry partner): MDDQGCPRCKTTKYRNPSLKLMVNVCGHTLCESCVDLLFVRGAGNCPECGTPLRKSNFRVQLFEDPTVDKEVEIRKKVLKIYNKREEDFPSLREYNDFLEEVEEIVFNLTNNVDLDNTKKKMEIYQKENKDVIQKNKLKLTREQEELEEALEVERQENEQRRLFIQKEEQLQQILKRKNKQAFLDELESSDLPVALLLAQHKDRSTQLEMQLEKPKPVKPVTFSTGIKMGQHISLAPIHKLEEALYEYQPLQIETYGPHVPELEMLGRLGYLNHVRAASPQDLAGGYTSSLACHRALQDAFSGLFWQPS

| CDK1/CDK7: Selectivity of CDK7 inhibition over CDK1 inhibition | SMILES |
| --- | --- |
| A (A=greater than 200 fold) | Cc1cccc(-c2cc(C(C)(C)O)n(C)n2)c1CNc1nc(N2CCC(N)CC2)nc2c(C(C)C)cnn12 [Compound 259] |

same assay, conditions: CDK2/CDK7

| CDK2/CDK7: Selectivity of CDK7 inhibition over CDK2 inhibition | SMILES |
| --- | --- |
| A (A=greater than 200 fold) | Cc1cccc(-c2cc(C(C)(C)O)n(C)n2)c1CNc1nc(N2CCC(N)CC2)nc2c(C(C)C)cnn12 [Compound 259] |

same assay, conditions: CDK5/CDK7

| CDK5/CDK7: Selectivity of CDK7 inhibition over CDK5 inhibition | SMILES |
| --- | --- |
| A (A=greater than 200 fold) | Cc1cccc(-c2cc(C(C)(C)O)n(C)n2)c1CNc1nc(N2CCC(N)CC2)nc2c(C(C)C)cnn12 [Compound 259] |

same assay, conditions: CDK7 over CDK1

| SMILES | CDK1/CDK7: Selectivity of CDK7 inhibition over CDK1 inhibition |
| --- | --- |
| N#Cc1cnn2c(NCc3ccccc3-n3cccn3)nc(N3CCC(N)CC3)nc12 [Compound 34] | B (B=less than 200 fold, but greater than 20 fold) |
| CC(C)c1cnn2c(NCc3ccccc3-n3cccn3)nc(-c3ccc(C4CCNCC4)cc3)nc12 [Compound 168] | A (A=greater than 200 fold) |
| CC(C)c1cnn2c(NCc3ccccc3-c3cc4cccc(NC(=O)N(C)C)c4[nH]3)nc(N3CCC(N)CC3)nc12 [Compound 149] | B (B=less than 200 fold, but greater than 20 fold) |

same assay, conditions: CDK7 over CDK2

| SMILES | CDK2/CDK7: Selectivity of CDK7 inhibition over CDK2 inhibition |
| --- | --- |
| N#Cc1cnn2c(NCc3ccccc3-n3cccn3)nc(N3CCC(N)CC3)nc12 [Compound 34] | C (C=less than 20 fold) |
| CC(C)c1cnn2c(NCc3ccccc3-n3cccn3)nc(-c3ccc(C4CCNCC4)cc3)nc12 [Compound 168] | B (B=less than 200 fold, but greater than 20 fold) |
| CC(C)c1cnn2c(NCc3ccccc3-c3cc4cccc(NC(=O)N(C)C)c4[nH]3)nc(N3CCC(N)CC3)nc12 [Compound 149] | B (B=less than 200 fold, but greater than 20 fold) |

same assay, conditions: CDK7 over CDK5

| CDK5/CDK7: Selectivity of CDK7 inhibition over CDK5 inhibition | SMILES |
| --- | --- |
| C (C=less than 20 fold) | N#Cc1cnn2c(NCc3ccccc3-n3cccn3)nc(N3CCC(N)CC3)nc12 [Compound 34] |
| C (C=less than 20 fold) | CC(C)c1cnn2c(NCc3ccccc3-c3cc4cccc(NC(=O)N(C)C)c4[nH]3)nc(N3CCC(N)CC3)nc12 [Compound 149] |

| SMILES | CDK5/CDK7: Selectivity of CDK7 inhibition over CDK5 inhibition |
| --- | --- |
| CC(C)c1cnn2c(NCc3ccccc3-n3cccn3)nc(-c3ccc(C4CCNCC4)cc3)nc12 [Compound 168] | B (B=less than 200 fold, but greater than 20 fold) |

same assay, conditions: read-out: CDK7 enzymatic activity (IC50 activity range)

| IC50 | SMILES |
| --- | --- |
| < 100 nM | Cc1cccc(-c2cc(C(C)(C)O)n(C)n2)c1CNc1nc(N2CCC(N)CC2)nc2c(C(C)C)cnn12 [Compound 259] |

same assay, conditions: read-out: CDK7 enzymatic activity (IC50 range)

| IC50 | SMILES |
| --- | --- |
| < 100 nM | N#Cc1cnn2c(NCc3ccccc3-n3cccn3)nc(N3CCC(N)CC3)nc12 [Compound 34] |
| < 100 nM | CC(C)c1cnn2c(NCc3ccccc3-n3cccn3)nc(-c3ccc(C4CCNCC4)cc3)nc12 [Compound 168] |
| < 100 nM | CC(C)c1cnn2c(NCc3ccccc3-c3cc4cccc(NC(=O)N(C)C)c4[nH]3)nc(N3CCC(N)CC3)nc12 [Compound 149] |

biological target: T2, CDK5/p25 (Homo sapiens, UniProt Q00535); assay: Enzymatic assay for CDK5 (FRET based LANCE Ultra kinase assay); format: biochemical; details: read-out: CDK5 enzymatic activity (IC50 activity range)
T2 construct: purchased Invitrogen PR8543B
Method: as §1
(§2) Inhibition activity of the respective compound on CDK kinase under Km value of ATP was tested in FRET based The LANCE® Ultra kinase assay (Perkin Elmer), which uses a ULight™-labeled peptide substrate and an appropriate Europium-labeled anti-phospho-antibody. Test compounds were made with DMSO solutions, and then 4-fold serial dilutions for 8 doses were prepared using automated liquid handler (POD810, LABCYTE) and 80 nL/well of diluted compound solutions were added into the 384-well plates (Greiner, Cat #784075). And then 68 nM of ULight-MBP peptide (Perkin Elmer, Cat #TRF0109-M) and 5 ul/well of ATP (Sigma, Cat #A7699) were added to the plate. After 1 min centrifugation at 1000 rpm, Purified CDKs/Cyclin complex were added following concentrations respectively. 24 uM for CDK1/Cyclin B (Invitrogen, Cat #PR4768C), 22 uM for CDK2/Cyclin A (Invitrogen, Cat #PV6290), 10 uM for CDK5/p25 (Invitrogen, Cat #PR8543B) and […] for CDK7/Cyclin H/MNAT1 (Invitrogen, Cat #PR6749B) were added to the each corresponding plate for CDK1, CDK2, CDK5 and CDK7. Incubate at 23° C. for 60 min and then Eu-labeled anti-phospho-Myelin Basic Protein (PE, Cat #TRF0201-M) and EDTA (Invitrogen, Cat #15575038) mixture in Lance Detection Buffer (Perkin Elmer, Cat #CR97100) was added in each well. After additional incubation at 23° C. for 60 min, test articles were measured the fluorescence using Envision leader (Perkin Elmer, USA) [Laser as excitation light; […] as the first and the second emission filter]. Data was analyzed using XL Fit software.

T2 sequence (Q00535 whole entry): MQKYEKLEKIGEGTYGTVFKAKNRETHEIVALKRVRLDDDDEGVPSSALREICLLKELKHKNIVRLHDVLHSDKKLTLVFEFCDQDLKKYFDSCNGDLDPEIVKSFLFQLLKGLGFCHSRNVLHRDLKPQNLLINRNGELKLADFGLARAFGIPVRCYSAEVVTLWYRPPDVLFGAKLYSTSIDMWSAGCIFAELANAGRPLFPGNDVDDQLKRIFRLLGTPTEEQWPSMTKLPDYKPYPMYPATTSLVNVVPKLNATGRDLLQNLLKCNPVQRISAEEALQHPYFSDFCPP
T2 sequence (Q15078 99-307 partner limits assumed): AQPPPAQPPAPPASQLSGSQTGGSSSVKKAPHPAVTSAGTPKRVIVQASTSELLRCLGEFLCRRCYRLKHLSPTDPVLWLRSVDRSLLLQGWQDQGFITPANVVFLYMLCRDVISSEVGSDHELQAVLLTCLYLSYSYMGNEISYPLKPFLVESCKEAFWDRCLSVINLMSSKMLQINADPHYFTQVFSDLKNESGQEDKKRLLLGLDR

| IC50 | SMILES |
| --- | --- |
| > 1000 nM | Cc1cccc(-c2cc(C(C)(C)O)n(C)n2)c1CNc1nc(N2CCC(N)CC2)nc2c(C(C)C)cnn12 [Compound 259] |

same assay, conditions: read-out: CDK5 enzymatic activity (IC50 range)

| IC50 | SMILES |
| --- | --- |
| 100 to 1000 nM | N#Cc1cnn2c(NCc3ccccc3-n3cccn3)nc(N3CCC(N)CC3)nc12 [Compound 34] |
| 100 to 1000 nM | CC(C)c1cnn2c(NCc3ccccc3-n3cccn3)nc(-c3ccc(C4CCNCC4)cc3)nc12 [Compound 168] |
| < 100 nM | CC(C)c1cnn2c(NCc3ccccc3-c3cc4cccc(NC(=O)N(C)C)c4[nH]3)nc(N3CCC(N)CC3)nc12 [Compound 149] |

system: H460; assay: Cellular H460 viability assay (CellTiter-Glo, 72 hours); format: cell-based; details: Homo sapiens, NCI-H460
Method: All cell lines were routinely tested for mycoplasma.
The effect of the CDK7 inhibitor to inhibit the growth of target cancer cells was evaluated through the 72 hours time period of viability assay. Briefly, the candidate cell line ware plated in 96 well plate at the following density of cells respectively. […] DMSO solvent without compound served as a control and final DMSO concentration less than 0.1%. After 72 hours of incubation at 37° C., 5% CO2 incubator, cells were analyzed for the viability using the CellTiter-Glo Luminescent Cell Viability Assay (Promega, Cat #G7570). All viability assays were performed in duplicate and Luminescence was read using an Envision (Perkin Elmer, USA). Data was analyzed using XLfit software.

| IC50 | SMILES |
| --- | --- |
| 1000 to 10000 nM | N#Cc1cnn2c(NCc3ccccc3-n3cccn3)nc(N3CCC(N)CC3)nc12 [Compound 34] |
| < 1000 nM | CC(C)c1cnn2c(NCc3ccccc3-c3cc4cccc(NC(=O)N(C)C)c4[nH]3)nc(N3CCC(N)CC3)nc12 [Compound 149] |

biological target: T3, CDK2/Cyclin A (Homo sapiens, UniProt P24941); assay: Enzymatic assay for CDK2 (FRET based LANCE Ultra kinase assay); format: biochemical; details: read-out: CDK2 enzymatic activity (IC50 activity range)
T3 construct: purchased Invitrogen PV6290
Method: as §1, §2

| IC50 | SMILES |
| --- | --- |
| > 1000 nM | Cc1cccc(-c2cc(C(C)(C)O)n(C)n2)c1CNc1nc(N2CCC(N)CC2)nc2c(C(C)C)cnn12 [Compound 259] |

same assay, conditions: read-out: CDK2 enzymatic activity (IC50 range)

| IC50 | SMILES |
| --- | --- |
| 100 to 1000 nM | N#Cc1cnn2c(NCc3ccccc3-n3cccn3)nc(N3CCC(N)CC3)nc12 [Compound 34] |
| 100 to 1000 nM | CC(C)c1cnn2c(NCc3ccccc3-n3cccn3)nc(-c3ccc(C4CCNCC4)cc3)nc12 [Compound 168] |
| < 100 nM | CC(C)c1cnn2c(NCc3ccccc3-c3cc4cccc(NC(=O)N(C)C)c4[nH]3)nc(N3CCC(N)CC3)nc12 [Compound 149] |

biological target: T4, CDK1/Cyclin B (Homo sapiens, UniProt P06493); assay: Enzymatic assay for CDK1 (FRET based LANCE Ultra kinase assay); format: biochemical; details: read-out: CDK1 enzymatic activity (IC50 activity range)
T4 construct: purchased Invitrogen PR4768C
Method: as §1, §2

T4 sequence (P06493 whole entry): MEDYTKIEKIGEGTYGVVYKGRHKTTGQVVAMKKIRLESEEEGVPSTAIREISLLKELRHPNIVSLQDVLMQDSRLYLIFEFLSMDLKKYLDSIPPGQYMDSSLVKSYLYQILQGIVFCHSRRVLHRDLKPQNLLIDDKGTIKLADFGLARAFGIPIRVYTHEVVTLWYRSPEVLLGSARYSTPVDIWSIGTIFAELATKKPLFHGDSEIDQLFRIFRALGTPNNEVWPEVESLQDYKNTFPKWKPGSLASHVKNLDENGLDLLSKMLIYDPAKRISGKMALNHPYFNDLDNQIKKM
T4 sequence (P14635 whole entry partner): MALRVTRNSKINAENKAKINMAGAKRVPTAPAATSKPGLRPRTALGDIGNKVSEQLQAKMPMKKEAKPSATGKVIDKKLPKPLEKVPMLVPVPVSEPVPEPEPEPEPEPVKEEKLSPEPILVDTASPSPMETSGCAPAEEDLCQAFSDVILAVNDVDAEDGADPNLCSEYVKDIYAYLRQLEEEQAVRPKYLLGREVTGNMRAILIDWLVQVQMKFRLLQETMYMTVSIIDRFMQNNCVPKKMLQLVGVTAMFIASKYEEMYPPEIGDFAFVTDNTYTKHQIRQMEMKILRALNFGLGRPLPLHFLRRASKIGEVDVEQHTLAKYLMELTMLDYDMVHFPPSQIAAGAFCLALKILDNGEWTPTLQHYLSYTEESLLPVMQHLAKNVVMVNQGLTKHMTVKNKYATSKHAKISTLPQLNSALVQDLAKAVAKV

| IC50 | SMILES |
| --- | --- |
| > 1000 nM | Cc1cccc(-c2cc(C(C)(C)O)n(C)n2)c1CNc1nc(N2CCC(N)CC2)nc2c(C(C)C)cnn12 [Compound 259] |

same assay, conditions: read-out: CDK1 enzymatic activity (IC50 range)

| IC50 | SMILES |
| --- | --- |
| > 1000 nM | N#Cc1cnn2c(NCc3ccccc3-n3cccn3)nc(N3CCC(N)CC3)nc12 [Compound 34] |
| > 1000 nM | CC(C)c1cnn2c(NCc3ccccc3-n3cccn3)nc(-c3ccc(C4CCNCC4)cc3)nc12 [Compound 168] |
| 100 to 1000 nM | CC(C)c1cnn2c(NCc3ccccc3-c3cc4cccc(NC(=O)N(C)C)c4[nH]3)nc(N3CCC(N)CC3)nc12 [Compound 149] |
